Source: US9486465B2, “Attractant for bone marrow stem cells and method for attracting bone marrow stem cells” (PIAS CORPORATION, priority 2012, dated 2016)

Test system: wound with full-thickness skin loss in genetically diabetic db/db mice
Experiment: Cell attraction test in vivo of mice: skin regeneration test (wound healing test)
Parameters: species or system mouse
Conditions: 120 μg/mL or 40 μg/mL PBS solution, 20 μL per site dropwise onto wound surface, three times per week for four weeks, FIG. 4
Text: Cell Attraction Test In Vivo of Mice
In order to evaluate the performance of the attractant for bone marrow stem cells to attract bone marrow stem cells in vivo of mice, living mice were subjected to experiments as follows. When a living mouse is wounded, bone marrow stem cells can accumulate around the wound portion through the bloodstream. Then, the bone marrow stem cells that have accumulated around the wound portion secrete cytokine, or the bone marrow stem cells that have accumulated around the wound portion differentiate into cells of the wound portion, thereby allowing the wound to be healed. Accordingly, it is expected that application of the attractant for bone marrow stem cells to the wound portion causes the bone marrow stem cells to be attracted to the wound portion, thereby accelerating the healing of the wound.
Method of Skin Regeneration Test (Wound Healing Test) […]
A picture of the back was captured three times per week, for four weeks, and the image was loaded into a PC. Thus, the wound area was measured using an image analysis software (product name: Image J). Thereafter, the wound area was measured once a week until about 60 days from the wound creation.

Oc1cc(O)c2c(c1)O[C@@]1(c3ccc(O)c(O)c3)Oc3cc(O)c4c(c3[C@@H]2[C@H]1O)O[C@H](c1ccc(O)c(O)c1)[C@H](O)[C@H]4c1c(O)cc(O)c2c1O[C@H](c1ccc(O)c(O)c1)[C@H](O)C2 [cinnamtannin B1]
wound area measurement (healing of the wound): healing of the wound was accelerated
